Measured values from patent publication US9394297B2, “Amides as pim inhibitors” (AMGEN INC., priority 2012, dated 2016).
Like-named read-outs stand apart in the source and are kept apart here.

Tests used:
[1] = tested on: KMS-12-BM cell lines; assay: KMS12 #2 flow cytometry assay (phospho-BAD Ser112); type: cell-based; settings: Homo sapiens, 110 min, read-out: KMS-12-Flow IC50 IP
[2] = target: Pim-1 (Homo sapiens (Human), UniProt P11309); assay: Pim-Mn enzyme assay (HTRF, 384-well), Pim-1; type: biochemical; settings: Pim-1 enzyme 5 pM, ATP 1.5 μM, BAD (S112) 0.5 μM, HTRF, 22-point curve; read-out: Pim-1-Mn IC50 IP
[3] = target: Pim-2 (Homo sapiens (Human), UniProt Q9P1W9); assay: Pim-Mn enzyme assay (HTRF, 384-well), Pim-2; type: biochemical; settings: Pim-2 enzyme 0.5 pM, ATP 1.5 μM, BAD (S112) 0.5 μM, HTRF, 22-point curve; read-out: Pim-2-Mn IC50 IP
[4] = KMS-12-BM cells, pBAD Ser112 by flow cytometry, 110 min with compound

Chain of Pim-2 (Q9P1W9 whole entry): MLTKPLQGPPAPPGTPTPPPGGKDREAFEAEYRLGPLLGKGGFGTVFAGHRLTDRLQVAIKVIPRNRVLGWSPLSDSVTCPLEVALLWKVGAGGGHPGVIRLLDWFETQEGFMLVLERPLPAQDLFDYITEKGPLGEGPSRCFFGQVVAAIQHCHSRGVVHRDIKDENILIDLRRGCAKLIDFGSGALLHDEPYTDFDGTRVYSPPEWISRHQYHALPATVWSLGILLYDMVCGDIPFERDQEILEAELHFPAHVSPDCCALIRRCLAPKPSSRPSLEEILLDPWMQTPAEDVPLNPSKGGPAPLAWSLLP
Chain of Pim-1 (P11309 whole entry): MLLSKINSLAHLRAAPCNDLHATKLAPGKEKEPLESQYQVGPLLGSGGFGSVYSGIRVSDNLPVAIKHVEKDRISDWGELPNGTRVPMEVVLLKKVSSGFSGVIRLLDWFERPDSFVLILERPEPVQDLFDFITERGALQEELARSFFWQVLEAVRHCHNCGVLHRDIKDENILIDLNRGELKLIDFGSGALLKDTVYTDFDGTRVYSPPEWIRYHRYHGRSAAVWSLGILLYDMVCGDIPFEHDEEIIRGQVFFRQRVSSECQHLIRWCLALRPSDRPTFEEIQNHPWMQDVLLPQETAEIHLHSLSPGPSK

Row | Structure (SMILES) | IC50 [1, 4] | IC50 [2] | IC50 [3] | IC50 ([1]; KMS-12-BM)
1 | Cc1nc2cccc(-c3cc4c([nH]3)CCN/C4=N\O)c2nc1NC(C)(C)C [Example 300, (E/Z)-2-(3-(tert-butylamino)-2-methylquinoxalin-5-yl)-6,7-dihydro-1H-pyrrolo[3,2-c]pyridin-4(5H)-one oxime] | > 10000 nM | – | – | –
2 | Cc1nc2cccc(-c3cc4c([nH]3)[C@H](C)NC4=O)c2nc1NC(C)(C)C [Example 327, (6S)-2-(3-(tert-butylamino)-2-methyl-5-quinoxalinyl)-6-methyl-5,6-dihydropyrrolo[3,4-b]pyrrol-4(1H)-one] | 98.6 nM | – | – | –
3 | CCn1c(NC(C)(C)C)nc2c(-c3cc4c([nH]3)[C@@H](C)NC4=O)cccc2c1=O [Example 481, (R)-2-(tert-butylamino)-3-ethyl-8-(6-methyl-4-oxo-1,4,5,6-tetrahydropyrrolo[3,4-b]pyrrol-2-yl)quinazolin-4(3H)-one] | – | – | – | 20 nM
4 | Cc1nc2ccc(F)c(-c3cc4c([nH]3)[C@@H](C)NC4=O)c2nc1NC(C)(C)C [Example 297, (6R)-2-(3-(tert-butylamino)-6-fluoro-2-methyl-5-quinoxalinyl)-6-methyl-5,6-dihydropyrrolo[3,4-b]pyrrol-4(1H)-one] | 28.4 nM | – | – | –
5 | C[C@H]1NC(=O)c2cc(-c3c(F)ccc4c(=O)n(C)c(NC(C)(C)C)nc34)[nH]c21 [Example 405, 2-(tert-butylamino)-7-fluoro-3-methyl-8-((6R)-6-methyl-4-oxo-1,4,5,6-tetrahydropyrrolo[3,4-b]pyrrol-2-yl)-4(3H)-quinazolinone] | 28 nM | – | – | –
6 | CC(C)n1c(NC(C)(C)C)nc2c(-c3cc4c([nH]3)[C@@H](C)NC4=O)cccc2c1=O [Example 406, 2-(tert-butylamino)-3-(1-methylethyl)-8-((6R)-6-methyl-4-oxo-1,4,5,6-tetrahydropyrrolo[3,4-b]pyrrol-2-yl)-4(3H)-quinazolinone] | 30 nM | – | – | –
7 | CC(=O)N1CCC[C@H](Nc2nc3c(-c4cc5c([nH]4)CCNC5=O)cccc3nc2C)C1 [Example 242, 2-(3-(((3S)-1-acetyl-3-piperidinyl)amino)-2-methyl-5-quinoxalinyl)-1,5,6,7-tetrahydro-4H-pyrrolo[3,2-c]pyridin-4-one] | – | 129 nM | 137 nM | –
8 | Cc1nc2cccc(-c3cc4c([nH]3)CCNC4=O)c2nc1NC1CNC1 [Example 150, 2-(3-(azetidin-3-ylamino)-2-methylquinoxalin-5-yl)-6,7-dihydro-1H-pyrrolo[3,2-c]pyridin-4(5H)-one] | – | 2 nM | 5.9 nM | –
9 | Cc1nc2cccc(-c3cc4c([nH]3)CCNC4=O)c2nc1N[C@H]1CCCN(C(=O)OC(C)(C)C)C1 [Example 51, tert-butyl (3S)-3-((3-methyl-8-(4-oxo-4,5,6,7-tetrahydro-1H-pyrrolo[3,2-c]pyridin-2-yl)-2-quinoxalinyl)amino)-1-piperidinecarboxylate] | – | 191 nM | 220 nM | –
10 | Cc1nc2cccc(-c3cc4c([nH]3)CCNC4=O)c2nc1N[C@H]1C[C@@H](NCCF)C1 [Example 477, 2-(3-(((1s,3s)-3-((2-fluoroethyl)amino)cyclobutyl)amino)-2-methylquinoxalin-5-yl)-6,7-dihydro-1H-pyrrolo[3,2-c]pyridin-4(5H)-one] | – | 1 nM | 1 nM | –
11 | Cc1nc2cccc(-c3cc4c([nH]3)CCNC4=O)c2nc1N[C@@H](C)C(F)(F)F [Example 255, (S)-2-(2-methyl-3-((1,1,1-trifluoropropan-2-yl)amino)quinoxalin-5-yl)-6,7-dihydro-1H-pyrrolo[3,2-c]pyridin-4(5H)-one] | – | 28.3 nM | 27.2 nM | –
12 | Cc1nc2cccc(-c3cc4c([nH]3)[C@@H](C)NC4=O)c2nc1N[C@H]1CCC[C@@H](N)C1 [Example 483, (6R)-2-(3-(((1S,3R)-3-aminocyclohexyl)amino)-2-methyl-5-quinoxalinyl)-6-methyl-5,6-dihydropyrrolo[3,4-b]pyrrol-4(1H)-one] | – | 0.0598 nM | 0.0358 nM | –
13 | Cc1nc2cccc(-c3cc4c([nH]3)C(Cc3ccc(Cl)cc3)CNC4=O)c2nc1N (racemic) [Example 273, rac-2-(3-amino-2-methyl-5-quinoxalinyl)-7-(4-chlorobenzyl)-1,5,6,7-tetrahydro-4H-pyrrolo[3,2-c]pyridin-4-one] | – | 39 nM | 19.1 nM | –
14 | Cc1nc2cccc(-c3cc4n(c3)C(CCO)CNC4=O)c2nc1NC(C)(C)C (racemic) [Example 235, (±)-7-(3-(tert-butylamino)-2-methyl-5-quinoxalinyl)-4-(2-hydroxyethyl)-3,4-dihydropyrrolo[1,2-a]pyrazin-1(2H)-one] | – | 9.5 nM | 14.5 nM | –
15 | Cc1nc2cccc(-c3cc4c([nH]3)CCNC4=O)c2nc1N[C@H]1CC[C@H](O)CC1 [Example 206, 2-(3-((trans-4-hydroxycyclohexyl)amino)-2-methylquinoxalin-5-yl)-6,7-dihydro-1H-pyrrolo[3,2-c]pyridin-4(5H)-one] | – | 2.7 nM | 4 nM | –
16 | Cc1nc2cccc(-c3cc4c([nH]3)CCNC4=O)c2nc1N[C@H]1C[C@@H](N(CCF)CCF)C1 [Example 476, 2-(3-(((1 s,3s)-3-(bis(2-fluoroethyl)amino)cyclobutyl)amino)-2-methylquinoxalin-5-yl)-6,7-dihydro-1H-pyrrolo[3,2-c]pyridin-4(5H)-one] | – | 2 nM | 12 nM | –
17 | CSc1nc2c(-c3cc4c([nH]3)CCNC4=O)cccc2c(=O)n1C [Example 265, 3-methyl-2-(methylthio)-8-(4-oxo-4,5,6,7-tetrahydro-1H-pyrrolo[3,2-c]pyridin-2-yl)quinazolin-4(3H)-one] | – | 25.2 nM | 11.9 nM | –

Second part, led by results:

Row | IC50 [1, 4] | IC50 [2] | IC50 [3] | Structure (SMILES) | IC50 ([1]; KMS-12-BM)
18 | 5860 nM | – | – | Cc1nc2cccc(-c3cc4c([nH]3)CCNC4=O)c2nc1-c1c(F)cccc1Cl [Example 414, 2-(3-(2-chloro-6-fluorophenyl)-2-methyl-5-quinoxalinyl)-1,5,6,7-tetrahydro-4H-pyrrolo[3,2-c]pyridin-4-one] | –
19 | 29.4 nM | – | – | Cn1c(NC(C)(C)C)nc2c(-c3cc4c([nH]3)C3(CC3)NC4=O)cccc2c1=O [Example 456, 2′-(2-(tert-butylamino)-3-methyl-4-oxo-3,4-dihydro-8-quinazolinyl)-1′H-spiro[cyclopropane-1,6′-pyrrolo[3,4-b]pyrrol]-4′(5′H)-one] | –
20 | 1280 nM | – | – | Cc1nc2cccc(-c3cc4c(n3C)C(CO)NC4=O)c2nc1NC(C)(C)C (racemic) [Example 470, (R)-2-(3-(tert-butylamino)-2-methylquinoxalin-5-yl)-6-(hydroxymethyl)-1-methyl-5,6-dihydropyrrolo[3,4-b]pyrrol-4(1H)-one and (S)-2-(3-(tert-butylamino)-2-methylquinoxalin-5-yl)-6-(hydroxymethyl)-1-methyl-5,6-dihydropyrrolo[3,4-b]pyrrol-4(1H)-one] | –
21 | 429 nM | – | – | Cn1c(NC(C)(C)C)nc2c(-c3cc4n(c3)CCNC4=O)cccc2c1=O [Example 449, 2-(tert-butylamino)-3-methyl-8-(1-oxo-1,2,3,4-tetrahydropyrrolo[1,2-a]pyrazin-7-yl)-4(3H)-quinazolinone] | –
22 | – | 4 nM | 2 nM | Cc1nc2cccc(-c3cc4c([nH]3)[C@@H](C)NC4=O)c2nc1N[C@H]1CCC[C@@H](NS(C)(=O)=O)C1 [Example 489, N-((1R,3S)-3-((3-methyl-8-((6R)-6-methyl-4-oxo-1,4,5,6-tetrahydropyrrolo[3,4-b]pyrrol-2-yl)-2-quinoxalinyl)amino)cyclohexyl)methanesulfonamide] | –
23 | – | 1 nM | 0.7 nM | CC[C@H]1NC(=O)c2cc(-c3cccc4c(=O)n(C5CC5)c(NC(C)(C)C)nc34)[nH]c21 [Example 511, (R)-2-(tert-butylamino)-3-cyclopropyl-8-(6-ethyl-4-oxo-1,4,5,6-tetrahydropyrrolo[3,4-b]pyrrol-2-yl)quinazolin-4(3H)-one] | –
24 | – | 0.3 nM | 0.6 nM | C[C@H]1NC(=O)c2cc(-c3cccc4c(=O)n(C5CCC5)c(NC(C)(C)C)nc34)[nH]c21 [Example 507, (R)-2-(tert-Butylamino)-3-cyclobutyl-8-(6-methyl-4-oxo-1,4,5,6-tetrahydropyrrolo[3,4-b]pyrrol-2-yl)quinazolin-4(3H)-one] | –
25 | – | 20 nM | 10 nM | Cc1nc2cccc(-c3cc4c([nH]3)[C@@H](C)NC4=O)c2nc1N[C@H]1CCC[C@@H](NC(=O)[C@@H](CO)NC(=O)OC(C)(C)C)C1 [Example 491, tert-butyl((1R)-1-(hydroxymethyl)-2-(((1R,3S)-3-((3-methyl-8-((6R)-6-methyl-4-oxo-1,4,5,6-tetrahydropyrrolo[3,4-b]pyrrol-2-yl)-2-quinoxalinyl)amino)cyclohexyl)amino)-2-oxoethyl)carbamate] | –
26 | – | 0.013 nM | 0.0378 nM | CCn1c(NC2(C)CC2)nc2c(-c3cc4c([nH]3)[C@@H](C)NC4=O)c(F)ccc2c1=O [Example 513, (R)-3-Ethyl-7-fluoro-8-(6-methyl-4-oxo-1,4,5,6-tetrahydropyrrolo[3,4-b]pyrrol-2-yl)-2-((1-methylcyclopropyl)amino)quinazolin-4(3H)-one] | –
27 | – | 1.73 nM | 2.38 nM | CC(=O)N[C@@H]1CCC[C@H](Nc2nc3c(-c4cc5c([nH]4)[C@@H](C)NC5=O)cccc3nc2C)C1 [Example 486, N-((1R,3S)-3-((3-methyl-8-((6R)-6-methyl-4-oxo-1,4,5,6-tetrahydropyrrolo[3,4-b]pyrrol-2-yl)-2-quinoxalinyl)amino)cyclohexyl)acetamide] | –
28 | – | 0.1 nM | 0.2 nM | CC(C)Nc1nc2c(-c3cc4c([nH]3)[C@@H](C)NC4=O)c(F)ccc2c(=O)n1C1CC1 [Example 490, (R)-3-cyclopropyl-7-fluoro-2-(isopropylamino)-8-(6-methyl-4-oxo-1,4,5,6-tetrahydropyrrolo[3,4-b]pyrrol-2-yl)quinazolin-4(3H)-one] | –
